pEC50: −log10 of the molar value.
Target: T1, horseradish peroxidase (HRP) tagged delF508-CFTR (Homo sapiens, UniProt P13569, DEL508-508)
T1 construct: expressed in transfected cells
Experiment: Measurement of delF508-CFTR-HRP surface expression in CFBE41o- cells;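 as to DelF508-CFTR-HRP Amax %: percent efficacy relative to reference corrector lumacaftor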
Type: cell-based
Details: CFBE41o- cells; for pEC50: mean of at least two replicates, read-out: DelF508-CFTR-HRP EC50; for Emax: surface expression Amax, read-out: DelF508-CFTR-HRP Amax %
Summary of the method: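 CFBE41o- bronchial epithelial cells stably expressing delF508-CFTR with HRP in the fourth extracellular loop; expression induced 48h with 500 ng/mL doxycycline, then compounds added (top 10 μM, 10-point 3-fold series, ≤0.5% DMSO) for 24h at 37° C. Surface HRP measured by luminescence with cell-impermeant substrate; EC50 from logistic fit of triplicates, plate-normalized to lowest concentration; efficacy also relative to a reference corrector.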

T1 sequence (P13569 with tags, fused parts or gaps DEL508-508): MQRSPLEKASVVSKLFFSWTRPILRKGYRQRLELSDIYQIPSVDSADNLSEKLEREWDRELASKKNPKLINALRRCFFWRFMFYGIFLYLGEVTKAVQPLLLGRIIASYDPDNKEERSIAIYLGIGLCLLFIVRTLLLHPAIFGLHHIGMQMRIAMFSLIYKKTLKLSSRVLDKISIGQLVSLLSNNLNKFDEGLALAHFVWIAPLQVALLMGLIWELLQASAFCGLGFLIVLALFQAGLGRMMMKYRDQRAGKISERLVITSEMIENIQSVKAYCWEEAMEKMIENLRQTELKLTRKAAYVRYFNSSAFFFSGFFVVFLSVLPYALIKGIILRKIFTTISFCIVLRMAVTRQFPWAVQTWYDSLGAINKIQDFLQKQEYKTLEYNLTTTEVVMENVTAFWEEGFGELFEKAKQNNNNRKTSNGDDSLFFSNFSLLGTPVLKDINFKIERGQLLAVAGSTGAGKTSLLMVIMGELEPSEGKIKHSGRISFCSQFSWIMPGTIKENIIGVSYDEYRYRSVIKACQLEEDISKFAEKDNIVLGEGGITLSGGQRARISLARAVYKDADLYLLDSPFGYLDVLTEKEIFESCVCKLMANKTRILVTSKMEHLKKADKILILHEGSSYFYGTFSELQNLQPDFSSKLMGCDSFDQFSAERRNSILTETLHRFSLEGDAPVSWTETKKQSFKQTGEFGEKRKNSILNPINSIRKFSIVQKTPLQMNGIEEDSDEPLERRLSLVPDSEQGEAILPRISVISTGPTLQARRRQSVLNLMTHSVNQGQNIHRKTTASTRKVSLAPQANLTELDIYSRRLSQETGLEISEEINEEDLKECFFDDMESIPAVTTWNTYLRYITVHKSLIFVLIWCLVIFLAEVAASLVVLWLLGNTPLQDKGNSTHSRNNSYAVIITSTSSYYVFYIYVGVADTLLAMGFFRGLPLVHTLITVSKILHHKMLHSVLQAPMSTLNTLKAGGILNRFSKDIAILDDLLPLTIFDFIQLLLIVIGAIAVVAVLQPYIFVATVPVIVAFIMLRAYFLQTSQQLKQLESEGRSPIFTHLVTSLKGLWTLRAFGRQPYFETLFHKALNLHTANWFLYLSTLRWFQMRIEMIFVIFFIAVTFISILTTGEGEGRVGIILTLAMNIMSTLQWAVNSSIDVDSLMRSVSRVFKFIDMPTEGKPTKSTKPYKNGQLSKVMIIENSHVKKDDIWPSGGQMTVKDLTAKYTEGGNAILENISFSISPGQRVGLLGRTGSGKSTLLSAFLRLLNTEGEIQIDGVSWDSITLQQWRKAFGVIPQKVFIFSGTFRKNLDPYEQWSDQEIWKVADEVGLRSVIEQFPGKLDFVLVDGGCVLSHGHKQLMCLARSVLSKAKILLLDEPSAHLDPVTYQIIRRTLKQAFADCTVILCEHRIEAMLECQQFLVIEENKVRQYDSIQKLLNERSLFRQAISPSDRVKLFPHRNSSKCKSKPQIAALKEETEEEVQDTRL

Row | SMILES | pEC50 | Emax [%]
1 | CC(C)COc1ccccc1-c1nc(NS(=O)(=O)c2cccc(N3CCC(C)(C(=O)O)CC3)n2)ccc1Cl [Example 397, 1-(6-(N-(5-chloro-6-(2-isobutoxyphenyl)pyridin-2-yl)sulfamoyl)pyridin-2-yl)-4-methylpiperidine-4-carboxylic Acid] | 5.89 | 303
2 | CCCc1ccccc1-c1nc(NS(=O)(=O)c2cccc(N3CCC(C)(C(=O)O)CC3)n2)ccc1C(F)(F)F [Example 398, 4-methyl-1-(6-(N-(6-(2-propylphenyl)-5-(trifluoromethyl)pyridin-2-yl)sulfamoyl)pyridin-2-yl)piperidine-4-carboxylic Acid] | 6.21 | 711
3 | CC1(C(=O)O)CCCN(c2cccc(S(=O)(=O)Nc3ccc(C(F)(F)F)c(-c4ccccc4Cl)n3)n2)C1 (stereo not shown) [Example 399, 1-(6-(N-(6-(2-chlorophenyl)-5-(trifluoromethyl)pyridin-2-yl)sulfamoyl)pyridin-2-yl)-3-methylpiperidine-3-carboxylic Acid] | 5.68 | 728
4 | CC(C)COc1ccccc1-c1nc(NS(=O)(=O)c2cccc(N3CCCC(C)(C(=O)O)C3)n2)ccc1Cl (stereo not shown) [Example 400, 1-(6-(N-(5-chloro-6-(2-isobutoxyphenyl)pyridin-2-yl)sulfamoyl)pyridin-2-yl)-3-methylpiperidine-3-carboxylic Acid] | 5.96 | 672
5 | CCCc1ccccc1-c1nc(NS(=O)(=O)c2cccc(N3CCCC(C)(C(=O)O)C3)n2)ccc1C(F)(F)F (stereo not shown) [Example 401, 3-methyl-1-(6-(N-(6-(2-propylphenyl)-5-(trifluoromethyl)pyridin-2-yl)sulfamoyl)pyridin-2-yl)piperidine-3-carboxylic Acid] | 6.10 | –
6 | CC1(C(=O)O)CCCN(c2cccc(S(=O)(=O)Nc3ccc(C(F)(F)F)c(-c4ccccc4C4CC4)n3)n2)C1 (stereo not shown) [Example 402, 1-(6-(N-(6-(2-cyclopropylphenyl)-5-(trifluoromethyl)pyridin-2-yl)sulfamoyl)pyridin-2-yl)-3-methylpiperidine-3-carboxylic Acid] | 6.11 | 729
7 | C[C@@]1(C(=O)O)CCCN(c2cccc(S(=O)(=O)Nc3cccc(-c4ccccc4C4CC4)n3)n2)C1 [Example 405, (R)-1-(6-(N-(6-(2-cyclopropylphenyl)pyridin-2-yl)sulfamoyl)pyridin-2-yl)-3-methylpiperidine-3-carboxylic Acid] | 5.61 | 235
8 | Cc1ccc(NS(=O)(=O)c2cccc(N3CCC[C@@](C)(C(=O)O)C3)n2)nc1-c1ccccc1C1CC1 [Example 406, (R)-1-(6-(N-(6-(2-cyclopropylphenyl)-5-methylpyridin-2-yl)sulfamoyl)pyridin-2-yl)-3-methylpiperidine-3-carboxylic Acid] | 5.82 | 334
9 | C[C@@]1(C(=O)O)CCCN(c2cccc(S(=O)(=O)Nc3ccc(C4CC4)c(-c4ccccc4C4CC4)n3)n2)C1 [Example 407, (R)-1-(6-(N-(5-cyclopropyl-6-(2-cyclopropylphenyl)pyridin-2-yl)sulfamoyl)pyridin-2-yl)-3-methylpiperidine-3-carboxylic Acid] | 5.79 | 468
10 | COc1ccc(NS(=O)(=O)c2cccc(N3CCC[C@@](C)(C(=O)O)C3)n2)nc1-c1ccccc1C1CC1 [Example 408, (R)-1-(6-(N-(6-(2-cyclopropylphenyl)-5-methoxypyridin-2-yl)sulfamoyl)pyridin-2-yl)-3-methylpiperidine-3-carboxylic Acid] | 5.70 | 271
11 | Cc1ccccc1-c1nc(NS(=O)(=O)c2cccc(N3CCC[C@@](C)(C(=O)O)C3)n2)ccc1C [Example 409, (R)-3-methyl-1-(6-(N-(5-methyl-6-(o-tolyl)pyridin-2-yl)sulfamoyl)pyridin-2-yl)piperidine-3-carboxylic Acid] | 5.78 | 330
12 | COc1ccc(NS(=O)(=O)c2cccc(N3CCC[C@@](C)(C(=O)O)C3)n2)nc1-c1ccccc1C [Example 410, (R)-1-(6-(N-(5-methoxy-6-(o-tolyl)pyridin-2-yl)sulfamoyl)pyridin-2-yl)-3-methylpiperidine-3-carboxylic Acid] | 5.72 | 210
13 | Cc1ccccc1-c1nc(NS(=O)(=O)c2cccc(N3CCC[C@@](C)(C(=O)O)C3)n2)ccc1C1CC1 [Example 411, (R)-1-(6-(N-(5-cyclopropyl-6-(o-tolyl)pyridin-2-yl)sulfamoyl)pyridin-2-yl)-3-methylpiperidine-3-carboxylic Acid] | 5.86 | 400
14 | Cc1ccccc1-c1cccc(NS(=O)(=O)c2cccc(N3CCC[C@@](C)(C(=O)O)C3)n2)n1 [Example 412, (R)-3-methyl-1-(6-(N-(6-(o-tolyl)pyridin-2-yl)sulfamoyl)pyridin-2-yl)piperidine-3-carboxylic Acid] | 5.72 | 221
15 | C[C@@]1(C(=O)O)CCCN(c2cccc(S(=O)(=O)Nc3ccc(C(F)(F)F)c(-c4ccccc4C4CC4)n3)n2)C1 [Example 413, (R)-1-(6-(N-(6-(2-cyclopropylphenyl)-5-(trifluoromethyl)pyridin-2-yl)sulfamoyl)pyridin-2-yl)-3-methylpiperidine-3-carboxylic Acid] | 6.24 | 906
16 | COc1ccc(Cl)c(-c2nc(NS(=O)(=O)c3cccc(N4CCCC(C)(C(=O)O)C4)n3)ccc2C(F)(F)F)c1 (stereo not shown) [Example 414, 1-(6-(N-(6-(2-chloro-5-methoxyphenyl)-5-(trifluoromethyl)pyridin-2-yl)sulfamoyl)pyridin-2-yl)-3-methylpiperidine-3-carboxylic Acid] | 5.72 | 684
17 | Cc1ccccc1-c1nc(NS(=O)(=O)c2cccc(N3CCC[C@@](C)(C(=O)O)C3)n2)ccc1C(F)(F)F [Example 415, (3R)-3-methyl-1-(6-{[6-(2-methylphenyl)-5-(trifluoromethyl)pyridin-2-yl]sulfamoyl}pyridin-2-yl)piperidine-3-carboxylic Acid] | 5.75 | –
18 | Cc1ccc(F)cc1-c1nc(NS(=O)(=O)c2cccc(N3CCC[C@@](C)(C(=O)O)C3)n2)ccc1C(F)(F)F [Example 416, (3R)-1-(6-{[6-(5-fluoro-2-methylphenyl)-5-(trifluoromethyl)pyridin-2-yl]sulfamoyl}pyridin-2-yl)-3-methylpiperidine-3-carboxylic Acid] | 5.72 | –
19 | Cc1c(F)cccc1-c1nc(NS(=O)(=O)c2cccc(N3CCC[C@@](C)(C(=O)O)C3)n2)ccc1C(F)(F)F [Example 417, (3R)-1-(6-{[6-(3-fluoro-2-methylphenyl)-5-(trifluoromethyl)pyridin-2-yl]sulfamoyl}pyridin-2-yl)-3-methylpiperidine-3-carboxylic Acid] | 5.73 | –
20 | CC(C)c1ccccc1-c1nc(NS(=O)(=O)c2cccc(N[C@H]3CCC[C@H](C(=O)O)C3)n2)ccc1C(F)(F)F [Example 418, (1S,3S)-3-((6-(N-(6-(2-isopropylphenyl)-5-(trifluoromethyl)pyridin-2-yl)sulfamoyl)pyridin-2-yl)amino)cyclohexanecarboxylic Acid] | 5.91 | 644
21 | Cc1ccccc1-c1nc(NS(=O)(=O)c2cccc(N3CCC4(CC4C(=O)O)C3)n2)ccc1C(F)(F)F (stereo not shown) [Example 419, 5-(6-(N-(6-(o-tolyl)-5-(trifluoromethyl)pyridin-2-yl)sulfamoyl)pyridin-2-yl)-5-azaspiro[2.4]heptane-1-carboxylic Acid] | 5.62 | 644
22 | O=C(O)C1CC12CCN(c1cccc(S(=O)(=O)Nc3ccc(C(F)(F)F)c(-c4ccccc4C4CC4)n3)n1)C2 (stereo not shown) [Example 420, 5-(6-(N-(6-(2-cyclopropylphenyl)-5-(trifluoromethyl)pyridin-2-yl)sulfamoyl)pyridin-2-yl)-5-azaspiro[2.4]heptane-1-carboxylic Acid] | 5.72 | 705
23 | C[C@@]1(C(=O)O)CCCN(c2cccc(S(=O)(=O)Nc3ccc(C(F)(F)F)c(-c4ccccc4Cl)n3)n2)C1 [Example 421, (R)-1-(6-(N-(6-(2-chlorophenyl)-5-(trifluoromethyl)pyridin-2-yl)sulfamoyl)pyridin-2-yl)-3-methylpiperidine-3-carboxylic Acid] | 5.69 | –
24 | CC(C)COc1ccccc1-c1nc(NS(=O)(=O)c2cccc(N3CCC[C@@](C)(C(=O)O)C3)n2)ccc1Cl [Example 422, (R)-1-(6-(N-(5-chloro-6-(2-isobutoxyphenyl)pyridin-2-yl)sulfamoyl)pyridin-2-yl)-3-methylpiperidine-3-carboxylic Acid] | 5.86 | 905
25 | CCCc1ccccc1-c1nc(NS(=O)(=O)c2cccc(N3CCC[C@@](C)(C(=O)O)C3)n2)ccc1C(F)(F)F [Example 423, (R)-3-methyl-1-(6-(N-(6-(2-propylphenyl)-5-(trifluoromethyl)pyridin-2-yl)sulfamoyl)pyridin-2-yl)piperidine-3-carboxylic Acid] | 6.12 | –
26 | COc1ccc(Cl)c(-c2nc(NS(=O)(=O)c3cccc(N4CCC[C@@](C)(C(=O)O)C4)n3)ccc2C(F)(F)F)c1 [Example 424, (R)-1-(6-(N-(6-(2-chloro-5-methoxyphenyl)-5-(trifluoromethyl)pyridin-2-yl)sulfamoyl)pyridin-2-yl)-3-methylpiperidine-3-carboxylic Acid] | 5.69 | –
27 | CCCc1ccccc1-c1nc(NS(=O)(=O)c2cccc(N3CCC[C@](C)(C(=O)O)C3)n2)ccc1C(F)(F)F [Example 425, (S)-3-methyl-1-(6-(N-(6-(2-propylphenyl)-5-(trifluoromethyl)pyridin-2-yl)sulfamoyl)pyridin-2-yl)piperidine-3-carboxylic Acid] | 5.91 | –

From patent publication US11066369B2, “N-(pyridin-2-yl)pyridine-sulfonamide derivatives and their use in the treatment of disease” (Novartis AG, priority 2016, dated 2021)
